{"source": "PubChem BioAssay (NCI)", "assay_in_all_cases": "DTP human tumour cell line panel, 48 h", "key": {"[1]": {"test_system": "NCI-H226 lung"}, "[2]": {"test_system": "HCT-116 colon"}, "[3]": {"test_system": "SK-OV-3 ovarian"}, "[4]": {"test_system": "COLO 205 colon"}, "[5]": {"test_system": "CAKI-1 renal"}, "[6]": {"test_system": "HCT-15 colon"}, "[7]": {"test_system": "HT29 colon"}, "[8]": {"test_system": "T-47D breast"}, "[9]": {"test_system": "MDA-MB-231 breast"}, "[10]": {"test_system": "HL-60(TB) leukemia"}}, "note": "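These data come from cells grown in 96-well plates and exposed to compound for 48 hours at five concentrations. Abbreviation: GI50, concentration required for 50% inhibition of growth. TGI denotes the concentration required for complete inhibition of growth.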"}
{"molecule": "COc1cc(/C=N/N=C(\\N)NO)ccc1O", "values": [{"measurement": "TGI", "setting": "[1]", "value": 85.9, "unit": "µM"}, {"measurement": "TGI", "setting": "[2]", "value": "> 100", "unit": "µM"}, {"measurement": "TGI", "setting": "[3]", "value": "> 100", "unit": "µM"}, {"measurement": "TGI", "setting": "[4]", "value": "> 100", "unit": "µM"}, {"measurement": "TGI", "setting": "[5]", "value": "> 100", "unit": "µM"}, {"measurement": "TGI", "setting": "[6]", "value": "> 100", "unit": "µM"}, {"measurement": "TGI", "setting": "[7]", "value": "> 100", "unit": "µM"}]}
{"molecule": "CC(C)C(=O)Nc1ccc(-c2nc(-c3cccc(OCCN4CCOCC4)c3)c(-c3ccnc(Br)c3)[nH]2)cc1", "values": [{"measurement": "GI50", "setting": "[1]", "value": 3.79, "unit": "µM"}, {"measurement": "TGI", "setting": "[1]", "value": 19.8, "unit": "µM"}, {"measurement": "GI50", "setting": "[2]", "value": 3.04, "unit": "µM"}, {"measurement": "TGI", "setting": "[2]", "value": 13.5, "unit": "µM"}, {"measurement": "GI50", "setting": "[3]", "value": 2.45, "unit": "µM"}, {"measurement": "TGI", "setting": "[3]", "value": 5.53, "unit": "µM"}, {"measurement": "GI50", "setting": "[4]", "value": 2.42, "unit": "µM"}, {"measurement": "TGI", "setting": "[4]", "value": 6.59, "unit": "µM"}, {"measurement": "GI50", "setting": "[5]", "value": 2.3, "unit": "µM"}, {"measurement": "TGI", "setting": "[5]", "value": 7.01, "unit": "µM"}, {"measurement": "GI50", "setting": "[8]", "value": 2.68, "unit": "µM"}, {"measurement": "TGI", "setting": "[8]", "value": 34.2, "unit": "µM"}, {"measurement": "GI50", "setting": "[6]", "value": 2.02, "unit": "µM"}, {"measurement": "TGI", "setting": "[6]", "value": 4.67, "unit": "µM"}, {"measurement": "GI50", "setting": "[9]", "value": 3.66, "unit": "µM"}, {"measurement": "TGI", "setting": "[9]", "value": "> 100", "unit": "µM"}]}
{"molecule": "CC(C)NC(=O)OCc1nnn2c1CCC2", "values": [{"measurement": "TGI", "setting": "[2]", "value": "> 100", "unit": "µM"}, {"measurement": "TGI", "setting": "[3]", "value": "> 100", "unit": "µM"}, {"measurement": "TGI", "setting": "[10]", "value": "> 100", "unit": "µM"}, {"measurement": "TGI", "setting": "[6]", "value": "> 100", "unit": "µM"}, {"measurement": "TGI", "setting": "[7]", "value": "> 100", "unit": "µM"}]}
{"molecule": "O=c1ccc2c(Cl)cccc2o1", "values": [{"measurement": "TGI", "setting": "[1]", "value": "> 100", "unit": "µM"}, {"measurement": "TGI", "setting": "[2]", "value": "> 100", "unit": "µM"}, {"measurement": "TGI", "setting": "[4]", "value": "> 100", "unit": "µM"}, {"measurement": "TGI", "setting": "[10]", "value": "> 100", "unit": "µM"}, {"measurement": "TGI", "setting": "[5]", "value": "> 100", "unit": "µM"}, {"measurement": "TGI", "setting": "[8]", "value": "> 100", "unit": "µM"}, {"measurement": "TGI", "setting": "[9]", "value": "> 100", "unit": "µM"}]}
{"molecule": "CSC1=C(SC)C(=O)c2cn(C)c(=O)cc2C1=O", "values": [{"measurement": "TGI", "setting": "[1]", "value": 40.4, "unit": "µM"}, {"measurement": "TGI", "setting": "[2]", "value": 3.33, "unit": "µM"}, {"measurement": "TGI", "setting": "[3]", "value": 31.3, "unit": "µM"}, {"measurement": "TGI", "setting": "[4]", "value": 2.89, "unit": "µM"}, {"measurement": "TGI", "setting": "[8]", "value": 3.99, "unit": "µM"}, {"measurement": "TGI", "setting": "[6]", "value": 4.78, "unit": "µM"}, {"measurement": "TGI", "setting": "[7]", "value": 13.1, "unit": "µM"}, {"measurement": "TGI", "setting": "[9]", "value": 3.7, "unit": "µM"}]}
{"molecule": "CC(C(=O)NCCNC(=O)CCCC(=O)N(C)O)C(=O)NCCNC(=O)CCCC(=O)N(C)O", "values": [{"measurement": "TGI", "setting": "[1]", "value": "> 100", "unit": "µM"}, {"measurement": "TGI", "setting": "[3]", "value": "> 100", "unit": "µM"}, {"measurement": "TGI", "setting": "[4]", "value": "> 100", "unit": "µM"}, {"measurement": "TGI", "setting": "[10]", "value": "> 100", "unit": "µM"}, {"measurement": "TGI", "setting": "[5]", "value": "> 100", "unit": "µM"}, {"measurement": "TGI", "setting": "[8]", "value": "> 100", "unit": "µM"}, {"measurement": "TGI", "setting": "[6]", "value": "> 100", "unit": "µM"}, {"measurement": "TGI", "setting": "[7]", "value": "> 100", "unit": "µM"}, {"measurement": "TGI", "setting": "[9]", "value": "> 100", "unit": "µM"}]}
{"molecule": "C1=Nc2ccccc2Cn2nncc21", "values": [{"measurement": "TGI", "setting": "[1]", "value": "> 100", "unit": "µM"}, {"measurement": "TGI", "setting": "[2]", "value": "> 100", "unit": "µM"}, {"measurement": "TGI", "setting": "[3]", "value": "> 100", "unit": "µM"}, {"measurement": "TGI", "setting": "[4]", "value": "> 100", "unit": "µM"}, {"measurement": "TGI", "setting": "[10]", "value": "> 100", "unit": "µM"}, {"measurement": "TGI", "setting": "[5]", "value": "> 100", "unit": "µM"}, {"measurement": "TGI", "setting": "[6]", "value": "> 100", "unit": "µM"}, {"measurement": "TGI", "setting": "[7]", "value": "> 100", "unit": "µM"}]}
{"molecule": "OC(c1ccccc1)C1CC2C=CC1C2", "note": "(stereo not given)", "values": [{"measurement": "TGI", "setting": "[2]", "value": "> 100", "unit": "µM"}, {"measurement": "TGI", "setting": "[3]", "value": "> 100", "unit": "µM"}, {"measurement": "TGI", "setting": "[4]", "value": "> 100", "unit": "µM"}, {"measurement": "TGI", "setting": "[10]", "value": "> 100", "unit": "µM"}, {"measurement": "TGI", "setting": "[5]", "value": "> 100", "unit": "µM"}, {"measurement": "TGI", "setting": "[6]", "value": "> 100", "unit": "µM"}, {"measurement": "TGI", "setting": "[7]", "value": "> 100", "unit": "µM"}]}
{"molecule": "COc1ccc(N2C(=O)C(=O)N(C)C2=O)c2ccccc12", "values": [{"measurement": "TGI", "setting": "[1]", "value": "> 10", "unit": "µM"}, {"measurement": "TGI", "setting": "[2]", "value": "> 10", "unit": "µM"}, {"measurement": "TGI", "setting": "[3]", "value": "> 10", "unit": "µM"}, {"measurement": "TGI", "setting": "[4]", "value": "> 10", "unit": "µM"}, {"measurement": "TGI", "setting": "[10]", "value": "> 10", "unit": "µM"}, {"measurement": "TGI", "setting": "[5]", "value": "> 10", "unit": "µM"}, {"measurement": "TGI", "setting": "[8]", "value": "> 10", "unit": "µM"}, {"measurement": "TGI", "setting": "[6]", "value": "> 10", "unit": "µM"}, {"measurement": "TGI", "setting": "[7]", "value": "> 10", "unit": "µM"}, {"measurement": "TGI", "setting": "[9]", "value": "> 10", "unit": "µM"}]}
{"molecule": "COC1=CC(=O)c2c(c(COC(C)=O)cn2C)C1=O", "values": [{"measurement": "TGI", "setting": "[1]", "value": 0.424, "unit": "µM"}, {"measurement": "TGI", "setting": "[2]", "value": 0.216, "unit": "µM"}, {"measurement": "TGI", "setting": "[3]", "value": 0.677, "unit": "µM"}, {"measurement": "TGI", "setting": "[4]", "value": 0.0943, "unit": "µM"}, {"measurement": "TGI", "setting": "[10]", "value": 0.694, "unit": "µM"}, {"measurement": "TGI", "setting": "[5]", "value": 0.22, "unit": "µM"}, {"measurement": "TGI", "setting": "[8]", "value": 3.67, "unit": "µM"}, {"measurement": "TGI", "setting": "[6]", "value": 0.0522, "unit": "µM"}, {"measurement": "TGI", "setting": "[7]", "value": 0.124, "unit": "µM"}, {"measurement": "TGI", "setting": "[9]", "value": 1.08, "unit": "µM"}]}
{"molecule": "CC1(CO)C(O)CCC2(C)C1C(O)CC1CC3CC12CCC3(O)CO", "note": "(stereo not given)", "values": [{"measurement": "TGI", "setting": "[1]", "value": 224, "unit": "µM"}, {"measurement": "TGI", "setting": "[2]", "value": "> 225", "unit": "µM"}, {"measurement": "TGI", "setting": "[3]", "value": "> 225", "unit": "µM"}, {"measurement": "TGI", "setting": "[4]", "value": "> 225", "unit": "µM"}, {"measurement": "TGI", "setting": "[10]", "value": "> 225", "unit": "µM"}, {"measurement": "TGI", "setting": "[5]", "value": "> 225", "unit": "µM"}, {"measurement": "TGI", "setting": "[6]", "value": "> 225", "unit": "µM"}, {"measurement": "TGI", "setting": "[7]", "value": "> 225", "unit": "µM"}]}
{"molecule": "Fc1ccc(Nc2ncc(-c3cc(F)c(Cl)cc3Cl)s2)cc1Cl", "values": [{"measurement": "GI50", "setting": "[1]", "value": 7.92, "unit": "µM"}, {"measurement": "TGI", "setting": "[1]", "value": "> 100", "unit": "µM"}, {"measurement": "GI50", "setting": "[2]", "value": 2.82, "unit": "µM"}, {"measurement": "TGI", "setting": "[2]", "value": 7.2, "unit": "µM"}, {"measurement": "GI50", "setting": "[3]", "value": 90.8, "unit": "µM"}, {"measurement": "TGI", "setting": "[3]", "value": "> 100", "unit": "µM"}, {"measurement": "GI50", "setting": "[4]", "value": 28.5, "unit": "µM"}, {"measurement": "TGI", "setting": "[4]", "value": "> 100", "unit": "µM"}, {"measurement": "GI50", "setting": "[10]", "value": 18.1, "unit": "µM"}, {"measurement": "TGI", "setting": "[10]", "value": 36.2, "unit": "µM"}, {"measurement": "GI50", "setting": "[5]", "value": 8.2, "unit": "µM"}, {"measurement": "TGI", "setting": "[5]", "value": 22, "unit": "µM"}, {"measurement": "GI50", "setting": "[8]", "value": "> 100", "unit": "µM"}, {"measurement": "TGI", "setting": "[8]", "value": "> 100", "unit": "µM"}, {"measurement": "GI50", "setting": "[6]", "value": 3.44, "unit": "µM"}, {"measurement": "TGI", "setting": "[6]", "value": "> 100", "unit": "µM"}, {"measurement": "GI50", "setting": "[7]", "value": 24.3, "unit": "µM"}, {"measurement": "TGI", "setting": "[7]", "value": "> 100", "unit": "µM"}, {"measurement": "GI50", "setting": "[9]", "value": 2.15, "unit": "µM"}, {"measurement": "TGI", "setting": "[9]", "value": 6.87, "unit": "µM"}]}
